Test results published in patent US4570005A, “Process for the preparation of 2-arylpropyl ether or thioether derivatives” (priority 1980, dated 1986).
Read-outs that look alike come from different tables or passages of the source.

Tests used:
[1] = tested on: resistant green rice leafhopper (collected at Nakagawara); assay: Test 3: Effect on Resistant Green Rice Leafhopper (collected at Nakagawara); assay type: in vivo, Nephotettix cincticeps Uhler (Green rice leafhopper); conditions: Nephotettix cincticeps, 24 h, read-out: Mortality (%), Green Rice Leafhopper Collected at Nakagawara
How it was run: (§1)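 Emulsifiable concentrate diluted to 100 or 20 ppm was sprayed, 3 ml per pot, onto hydroponic rice seedlings at 2–3 leaves. After air-drying, 10 female adults of the Nakagawara (resistant) or Chigasaki (sensitive) strain were released per caged pot. Mortality was counted at 24 h and averaged over three pots.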

[2] = Test 8: Fish Toxicity; assay type: in vivo; conditions: carp, water; concentration at which 1/2 of the test fishes were killed within 48 hours; read-out: Fish Toxicity, TLm48
Description: A water tank having a width of 60 cm, a length of 30 cm and a height of 40 cm was filled with water, and 10 yearling carps having a body length of about 5 cm were set free in the tank and adapted to the environment in the tank. A test compound was applied so that the concentration in water was 10, 1 or 0.1 ppm. After 48 hours, the numbers of killed and living carps were counted and the influences on the fishes were examined.

[3] = Test 9: Toxicity Test (acute oral toxicity, mice); conditions: mouse, in vivo, po
Description: A predetermined amount of a solution or suspension of a test compound in corn oil was orally administered to male mice having a body weight of 19 to 23 g (0.2 ml per 10 g of the body weight). After 7 days, the number of killed mice was counted and the influences on the mice were examined.

[4] = tested on: sensitive green rice leafhopper (collected at Chigasaki); assay: whole plant or invertebrate; assay type: in vivo; conditions: Nephotettix cincticeps, sensitive female adults, 24 hours, read-out: Mortality (%), Green Rice Leafhopper Collected at Chigasaki
How it was run: as §1

[5] = tested on: German cockroach; assay: Test 7: Effect on German Cockroach; assay type: in vivo; conditions: Blattella germanica, male adults, agonized and killed after 24 hours, read-out: Mortality (%); for mortality at 10 mg/m2: 10 mg/m^2; for mortality at 50 mg/m2: 50 mg/m^2
Description: (§2) To a mixture of 20 parts of the compound of the present invention and 20 parts of Sorpol SM-200 (registered tradename for the product supplied by Toho Chemical Industrial Co., Ltd.) was added 60 parts of xylol, and the mixture was suffciently blended. The obtained emulsifiable concentrate was diluted at a predetermined concentration with distilled water, and the obtained dilution was used.
The bottom face of a high Petri dish having a diameter of 9 cm and a height of 9 cm was treated with 50 or 10 mg/m^2 of a test compound and the dish was air-dried. In order to prevent the adults from escaping from the dish, the inner wall of the dish was treated with butter. Then, 10 male adults of German cockroach were set free in each dish, and the dish was placed in a thermostat chamber maintained at 25° C. After 24 hours, the number of agonized and killed adults was counted. The test was made on two dishes and the average value was calculated.

[6] = tested on: tobacco cutworm; assay: Test 1: Effect on Tobacco Cutworm (leaf immersion), mortality after 24 hours; assay type: in vivo; conditions: second-instar larvae, 25° C
How it was run: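 Sweet-potato leaves dipped 10 s in emulsifiable concentrate diluted to 100 or 20 ppm, air-dried, then exposed to second-instar larvae at 25 °C. Mortality counted after 24 h, averaged over three cups.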

[7] = tested on: diamond back moth; assay: Test 4: Effect on Diamond Back Moth; assay type: in vivo; conditions: Plutella, third-instar larvae, 24 hours, read-out: Mortality (%)
Description: as §2
Cabbage leaves were spread in a plastic cup, and 10 third-instar larvae of diamond back moth were set free in the cup.
A chemical dilution having a concentration of 100 or 20 ppm, prepared in the same manner as described in Test 1, was applied from an applicator at a rate of 3 ml per cup.
After scattering of the chemical dilution, the cup was covered, and after 24 hours, the numbers of killed and living larvae were counted and the mortality was calculated. The test was made on three cups and the average value was calculated.

[8] = tested on: tobacco cutworm; assay: Test 2: Tobacco Cutworm Larva Dipping Test, mortality after 24 hours; assay type: in vivo; conditions: 24 hours
Description: as §2
A dilution having a chemical concentration of 100 or 20 ppm was prepared in the same manner as described in Test 1.
Second-instar and fifth-instar larvae of tobacco cutworm were dipped in the dilution for 5 seconds, and the excessive dilution was removed by a filter paper. Then, the larvae were set free in a plastic cup and an artificial diet was supplied thereto. The cup was allowed to stand still in a thermostat chamber maintained at 25° C. After 24 hours, the numbers of the killed and living larvae were counted and the mortality was calculated. The test was made on three cups and the result was expressed by an average value.

[9] = tested on: green peach aphid; assay: Test 5: Effect on Green Peach Aphid; assay type: in vivo; conditions: Myzus persicae, read-out: Insecticidal Activity
Description: as §2
Seedlings (having 3 to 4 leaves) of an eggplant grown on a pot were inoculated with green peach aphids and the insects were allowed to grow. The number of the insects was counted. A chemical dilution having a concentration of 100 ppm, prepared in the same manner as described in Test 1, was applied with a spray gun at a rate of 10 ml per pot. Then, the pot was placed in a glass green house. After 24 hours, the number of living insects was counted and the mortality was calculated.
The test was made on three pots, and the average value was calculated. In Table 6, mark "A" indicates a mortality higher than 95%, mark "B" indicates a mortality of 80 to 95%, mark "C" indicates a mortality of 50 to 80%, and mark "D" indicates a mortality lower than 50%.

[10] = fifth-instar larvae, read-out: Motality (%), Fifth-Instar Larvae
[11] = second-instar larvae, read-out: Motality (%), Second-Instar Larvae
[12] = 100 ppm, mortality class, 24 hours

SMILES	mortality at 20 ppm [1] [%]	mortality at 100 ppm [1] [%]	LC50 at 48 h [2] [µg/mL]	LD50 at 168 h [3] [mg/kg]	mortality at 20 ppm [4] [%]	mortality at 100 ppm [4] [%]	mortality at 10 mg/m2 [5] [%]	mortality at 50 mg/m2 [5] [%]	mortality at 20 ppm [6] [%]	mortality at 100 ppm [6] [%]	mortality at 20 ppm [7] [%]	mortality at 100 ppm [7] [%]	mortality at 20 ppm [8, 10] [%]	mortality at 20 ppm [8, 11] [%]	mortality at 100 ppm [8, 10] [%]	mortality at 100 ppm [8, 11] [%]	mortality at 100 ppm [9, 12] [%]	mortality at 100 ppm ([9]; 24 h) [%]
COc1ccc(Oc2cccc(COCC(C)(C)c3ccccc3)c2)cc1 [Compound 13, 3-(4-methoxyphenoxy)benzyl 2-phenyl-2-methylpropyl ether]	70	100	> 10	> 500	50	100												
CC(C)(COCc1cccc(C(=O)c2ccccc2)c1)c1ccc(Cl)cc1 [Compound 22, 3-Benzoylbenzyl 2-(4-chlorophenyl)-2-methylpropyl ether]	80	100	> 10	> 500	50	100	90	100										
CC(C)(COCc1cccc(Oc2ccc(Br)cc2)c1)c1ccc(Cl)c(Cl)c1 [Compound 21, 3-(4-Bromophenoxy)benzyl 2-(3,4-dichlorophenyl)-2-methylpropyl ether]	85	100	> 10	> 500	60	100												
Cc1ccc(Oc2cccc(COCC(C)(C)c3ccc(Cl)cc3)c2)cc1 [Compound 19, 3-(4-methylphenoxy)benzyl 2-(4-chlorophenyl)-2-methylpropyl ether]	100	100	> 10	> 500	90	100												
CC(C)(COCc1cccc(Oc2ccc(Br)cc2)c1)c1ccc(Cl)cc1 [Compound 4, 3-(4-Bromophenoxy)benzyl 2-(4-chlorophenyl)-2-methylpropyl ether]	70	100	> 10	> 500	50	100			95	100	100	100	70	90	80	90		
CC(C)(COCc1cccc(Oc2ccc(Br)cc2)c1)c1ccc(OC(F)F)cc1 [Compound 30, 3-(4-Bromophenoxy)benzyl 2-(4-difluoromethoxyphenyl)-2-methylpropyl ether]	100	100	> 1	> 500	100	100			80	100	70	100						
CC(C)(CSCc1cccc(Oc2ccc(Br)cc2)c1)c1ccc(Cl)cc1 [Compound 37]	70	100	> 10	> 500	50	100			100	100	100	100						
CC(C)C(C(=O)OC(C#N)c1cccc(Oc2ccccc2)c1)c1ccc(Cl)cc1 (stereo not shown) [Comparative Compound (a), reference compound]			< 0.005	260														
CCOc1ccc(C(C)(C)CSCc2cccc(Oc3ccccc3)c2)cc1 [Compound 95]	100	100		> 500	100	100			100	100							> 95	
CC(C)(COCc1cccc(Oc2ccccc2)c1)c1ccc(Br)cc1 [Compound 107, 3-Phenoxybenzyl 2-(4-bromophenyl)-2-methylpropyl ether]	100	100	> 1	> 500	100	100												
C#Cc1ccc(C(C)(C)COCc2cccc(Oc3ccccc3)c2)cc1 [Compound 96, 3-Phenoxybenzyl 2-(4-ethynylphenyl)-2-methylpropyl ether]	90	100		> 500	60	100											80 to 95	
CCC(C)(COCc1cccc(Oc2ccc(F)cc2)c1)c1ccc(F)cc1 (stereo not shown) [Compound 2, 3-(4-fluorophenoxy)benzyl 2-(4-fluorophenyl)-2-methylbutyl ether]	95	100	> 1	> 500	80	100			90	100	100	100						
CC(C)(COCc1cccc(Oc2ccccc2)c1)c1ccc2ccccc2c1 [Compound 31, 3-Phenoxybenzyl 2-(2-naphthyl)-2-methylpropyl ether]	100	100	> 10	> 500	100	100	100	100										
COC(C)c1ccc(C(C)(C)COCc2cccc(Oc3ccccc3)c2)cc1 (stereo not shown) [Compound 86, 3-Phenoxybenzyl 2[4-(1-methoxyethyl)phenyl]-2-methylpropyl ether]				> 500													80 to 95	
COP(=O)(NC(C)=O)SC (stereo not shown) [Comparative Compound (h), O,S-dimethyl N-acetylphosphoroamidothiolate, reference compound]																		80 to 95
CC(C)(COCc1cccc(Oc2ccccc2)c1)c1ccc(F)cc1 [Compound 51, 3-Phenoxybenzyl 2-(4-fluorophenyl)-2-methylpropyl ether]	100	100	> 1	> 500	100	100			100	100								
CC(C)(COCc1cccc(Oc2ccc(F)cc2)c1)c1cccc(C(F)(F)F)c1 [Compound 23, 3-(4-Fluorophenoxy)benzyl 2-(3-trifluoromethylphenyl)-2-methylpropyl ether]			> 1	> 500					80	100								
